Patent publication US10856562B2, “Flavor composition and edible compositions containing same” (MARS, INCORPORATED, priority 2013, dated 2020)
Square brackets hold non-standard residues; d marks the D form. Ends that are not written are not given here. pGlu = O=C1CC[C@@H](C(=O)O)N1

Columns and labels:
panelists [1] = assay: Degree of Difference (DOD) of test rice from control rice; assay type: in vivo, human; set-up: Degree of Difference in rice: scale not given here; conditions: for Degree of Difference in rice: difference from Control; for Degree of Difference in rice / DOD from Control: rice; for DOD from Control: scale 0.0 to 10.0
Text: The present example describes the evaluation of the descriptive profile of pGlu-Cys (identified as “FE-35”), pGlu-Cys-Gly (identified as “FE-36”), pGlu-Cys-Cys (identified as “FE-37”), pGlu-Cys-Val (identified as “FE-38”) and pGlu-Val-Cys (identified as “UE-30”) peptides of the present application. An objective of the study was to understand the efficacy of flavor enhancer compounds FE-35, FE-36, FE-37, FE-38 and UE-30 in increasing concentrations both in solution and in rice, and to determine a Degree of Difference (DOD) score between a control rice sample (which includes NaCl, and no flavor composition peptide) and the test rice samples (with added flavor composition peptides at increasing concentrations).

panelists [2] = assay: Consensus attribute scores of flavor enhancers in Uncle Ben's Garden Vegetable Ready rice; assay type: in vivo, human; set-up: key to Cooked White Rice / Vegetable Oil / Vegetable Complex / Cooked Green Vegetable / Cooked Corn / Sweet (BASIC TASTES) / Salt (BASIC TASTES) / Mouthdrying (Texture) / Residual Mouthcoating (Texture) / Total Aromatics / Bitter (BASIC TASTES): 15-point scale, 0 = none, 15 = very strong; conditions: for Bitter (BASIC TASTES) / Black Pepper / Cooked Corn / Cooked Green Vegetable / Cooked White Rice / Dehydrated onion/garlic / HVP/Brothy / Mouthdrying (Texture) / Residual Mouthcoating (Texture) / Salt (BASIC TASTES) / Salt Burn (Chemical Feeling Factors) / Sweet (BASIC TASTES) / Total Aromatics / Umami (Chemical Feeling Factors) / Vegetable Complex / Vegetable Oil / Heat (Chemical Feeling Factors) / Mineral/Flint: rice
Method: Descriptive attributes (e.g., taste, flavor and chemical feeling factors) of three use levels of pGlu-Cys (FE-35), pGlu-Cys-Gly (FE-36), pGlu-Cys-Cys (FE-37), pGlu-Cys-Val (FE-38) and pGlu-Val-Cys (UE-30) flavor composition peptides were determined. The three use levels were as follows: 1.0 ppb, 10.0 ppb and 100.0 ppb.
Data was collected for the attributes of the product in-mouth for the use levels according to the following protocol: • The samples were analyzed for flavor by six to nine members of a panel, trained and experienced in flavor evaluation using the Spectrum™ method. Samples were evaluated across multiple panel sessions. • The strength of each attribute was rated on a 15-point scale, where 0=none and 15=very strong. • This scale incorporates the ability to use tenths of a point and therefore has the potential of 150 scale differentiations. • The scale may be expanded beyond 15 points to include extreme ratings if necessary.
Preparation of Rice Samples • Each flavor enhancer was tested in Uncle Ben's Garden Vegetable Ready rice matrix at 3 different concentrations: 1 ppb, 10 ppb and 100 ppb. A total of 15 points with flavor enhancers were prepared for sensory evaluation. Additionally, 15 control samples were prepared. Each point had 2 samples (test and control) and was made from one pouch of rice. • Directions to prepare the solutions: • The 15 ready- to eat pouches were microwaved according to the procedure found on the back of the pouch: (1) squeeze pouch to separate rice, (2) tear two inches to vent, (3) heat on High for 90 seconds and (4) remove from microwave using COOL TOUCH area on untorn side. • From each pouch 124.75 g (test sample) and 99.8 g (control) were weighed out. The test sample had the flavor enhancer and/or salt. The control sample only had salt added. • The flavor enhancer and/or salt (non-iodized salt) were weighed in a soufflé cup. The weighed amount of flavor enhancer and/or salt was added to the sub-sampled rice. The rice was stirred and mixed to evenly distribute the salt added. • Some rice was placed back into the soufflé cup, sealed, and the cup was shook to get the flavor enhancer and/or salt that may have been stuck on the walls of the soufflé cup. After shaking the soufflé cup, the rice was added back to the original sub-sampled rice and stirred/mixed again. • Each sample (test and control) was microwaved for another 30 seconds (or until warm) to ensure that the salts/compounds were going completely into the solutions. • All samples (test and control) were tasted at the same temperature. • Each test sample had 0.2% NaCl added and flavor enhancers at the specified concentrations.
A summary of the concentrations of NaCl and flavor composition peptides in the rice samples is described in table 23. The first value of each cell represents a single sample amount of an ingredient in milligrams, and the second number in parenthesis is a doubling of the ingredient (in grams) for use in a doubled size sample.
The panelists evaluated each sample for the attributes described by table 25.

[pGlu]-Cys-Gly [FE-36]
Whether consumers notice a difference between the Control and test rice (DOD) (panelists [1]; all concentrations): Consumers will likely notice a difference
Degree of Difference in rice (panelists [1]; 1.0 ppb): 5.0
Degree of Difference in rice (panelists [1]; 10.0 ppb): 5.0
Degree of Difference in rice (panelists [1]; 100.0 ppb): 5.5
DOD from Control (panelists [1]; 1.0 ppb (5 ppm)): 5.0
DOD from Control (panelists [1]; 10.0 ppb (50 ppm)): 5.0
DOD from Control (panelists [1]; 100 ppb (50 ppm)): 5.5
Salt burn in rice (panelists [2]; 100 ppb): low level of salt burn
Bitter in rice (panelists [2]; all samples (1, 10, 100 ppb)): slightly bitter
Cooked green vegetable in rice compared to the Control (panelists [2]; all samples (1, 10, 100 ppb)): low level of cooked green vegetable
Mouthdrying in rice, not seen in the Control (panelists [2]; all samples (1, 10, 100 ppb)): have mouthdrying
Umami feeling factor in rice compared to the Control (panelists [2]; all samples (1, 10, 100 ppb)): higher in umami
Bitter (BASIC TASTES) (panelists [2]; 1.0 ppb (5 ppm)): 0.5
Black Pepper (panelists [2]; 1.0 ppb (5 ppm)): 1.0
Cooked Corn (panelists [2]; 1.0 ppb (5 ppm)): 1.0
Cooked Green Vegetable (panelists [2]; 1.0 ppb (5 ppm)): 0.5
Cooked White Rice (panelists [2]; 1.0 ppb (5 ppm)): 3.0
Dehydrated onion/garlic (panelists [2]; 1.0 ppb (5 ppm)): 1.0
HVP/Brothy (panelists [2]; 1.0 ppb (5 ppm)): 1.0
Mouthdrying (Texture) (panelists [2]; 1.0 ppb (5 ppm)): 1.0
Residual Mouthcoating (Texture) (panelists [2]; 1.0 ppb (5 ppm)): 1.0
Salt (BASIC TASTES) (panelists [2]; 1.0 ppb (5 ppm)): 11.5
Salt Burn (Chemical Feeling Factors) (panelists [2]; 1.0 ppb (5 ppm)): 0.0
Sweet (BASIC TASTES) (panelists [2]; 1.0 ppb (5 ppm)): 3.5
Total Aromatics (panelists [2]; 1.0 ppb (5 ppm)): 6.0
Umami (Chemical Feeling Factors) (panelists [2]; 1.0 ppb (5 ppm)): 1.5
Vegetable Complex (panelists [2]; 1.0 ppb (5 ppm)): 1.5
Vegetable Oil (panelists [2]; 1.0 ppb (5 ppm)): 0.8
Bitter (BASIC TASTES) (panelists [2]; 10.0 ppb (50 ppm)): 1.0
Black Pepper (panelists [2]; 10.0 ppb (50 ppm)): 1.0
Cooked Corn (panelists [2]; 10.0 ppb (50 ppm)): 1.0
Cooked Green Vegetable (panelists [2]; 10.0 ppb (50 ppm)): 1.0
Cooked White Rice (panelists [2]; 10.0 ppb (50 ppm)): 3.0
Dehydrated onion/garlic (panelists [2]; 10.0 ppb (50 ppm)): 1.5
HVP/Brothy (panelists [2]; 10.0 ppb (50 ppm)): 1.0
Mouthdrying (Texture) (panelists [2]; 10.0 ppb (50 ppm)): 1.5
Residual Mouthcoating (Texture) (panelists [2]; 10.0 ppb (50 ppm)): 1.0
Salt (BASIC TASTES) (panelists [2]; 10.0 ppb (50 ppm)): 13.5
Salt Burn (Chemical Feeling Factors) (panelists [2]; 10.0 ppb (50 ppm)): 0.0
Sweet (BASIC TASTES) (panelists [2]; 10.0 ppb (50 ppm)): 3.5
Total Aromatics (panelists [2]; 10.0 ppb (50 ppm)): 6.5
Umami (Chemical Feeling Factors) (panelists [2]; 10.0 ppb (50 ppm)): 3.0
Vegetable Complex (panelists [2]; 10.0 ppb (50 ppm)): 2.0
Vegetable Oil (panelists [2]; 10.0 ppb (50 ppm)): 0.8
Bitter (BASIC TASTES) (panelists [2]; 100 ppb (50 ppm)): 0.5
Black Pepper (panelists [2]; 100 ppb (50 ppm)): 0.8
Cooked Corn (panelists [2]; 100 ppb (50 ppm)): 0.8
Cooked Green Vegetable (panelists [2]; 100 ppb (50 ppm)): 0.8
Cooked White Rice (panelists [2]; 100 ppb (50 ppm)): 3.0
Dehydrated onion/garlic (panelists [2]; 100 ppb (50 ppm)): 1.3
HVP/Brothy (panelists [2]; 100 ppb (50 ppm)): 1.0
Mouthdrying (Texture) (panelists [2]; 100 ppb (50 ppm)): 2.0
Residual Mouthcoating (Texture) (panelists [2]; 100 ppb (50 ppm)): 1.0
Salt (BASIC TASTES) (panelists [2]; 100 ppb (50 ppm)): 13.5
Salt Burn (Chemical Feeling Factors) (panelists [2]; 100 ppb (50 ppm)): 1.0
Sweet (BASIC TASTES) (panelists [2]; 100 ppb (50 ppm)): 3.5
Total Aromatics (panelists [2]; 100 ppb (50 ppm)): 6.3
Umami (Chemical Feeling Factors) (panelists [2]; 100 ppb (50 ppm)): 4.0
Vegetable Complex (panelists [2]; 100 ppb (50 ppm)): 1.5
Vegetable Oil (panelists [2]; 100 ppb (50 ppm)): 0.8

[pGlu]-Cys [FE-35]
Whether consumers notice a difference between the Control and test rice (DOD) (panelists [1]; 1 ppb): Consumers will likely not notice the difference
Whether consumers notice a difference between the Control and test rice (DOD) (panelists [1]; 10 and 100 ppb): Consumers will likely notice a difference
Degree of Difference in rice (panelists [1]; 1.0 ppb): 3.8
Degree of Difference in rice (panelists [1]; 10.0 ppb): 5.0
Degree of Difference in rice (panelists [1]; 100.0 ppb): 5.0
DOD from Control (panelists [1]; 1.0 ppb (5 ppm)): 3.8
DOD from Control (panelists [1]; 10.0 ppb (50 ppm)): 5.0
DOD from Control (panelists [1]; 100 ppb (50 ppm)): 5.0
Umami feeling factor in rice compared to the Control (panelists [2]; 10 & 100 ppb): higher
Salt in rice compared to the Control (panelists [2]; 100 ppb): saltier than the Control
Heat in rice, not seen in the Control (panelists [2]; all concentrations): low level
Cooked green vegetable in rice compared to the Control (panelists [2]; all samples (1, 10, 100 ppb)): low level of cooked green vegetable
Mouthdrying in rice, not seen in the Control (panelists [2]; all samples (1, 10, 100 ppb)): low level
Total aromatics in rice (panelists [2]; at 50 ppm): slightly lower
Black Pepper (panelists [2]; 1.0 ppb (5 ppm)): 1.0
Cooked Corn (panelists [2]; 1.0 ppb (5 ppm)): 0.5
Cooked Green Vegetable (panelists [2]; 1.0 ppb (5 ppm)): 0.5
Cooked White Rice (panelists [2]; 1.0 ppb (5 ppm)): 3.0
Dehydrated onion/garlic (panelists [2]; 1.0 ppb (5 ppm)): 0.8
HVP/Brothy (panelists [2]; 1.0 ppb (5 ppm)): 1.0
Heat (Chemical Feeling Factors) (panelists [2]; 1.0 ppb (5 ppm)): 0.8
Mineral/Flint (panelists [2]; 1.0 ppb (5 ppm)): 0.8
Mouthdrying (Texture) (panelists [2]; 1.0 ppb (5 ppm)): 1.5
Residual Mouthcoating (Texture) (panelists [2]; 1.0 ppb (5 ppm)): 1.0
Salt (BASIC TASTES) (panelists [2]; 1.0 ppb (5 ppm)): 13.0
Sweet (BASIC TASTES) (panelists [2]; 1.0 ppb (5 ppm)): 3.5
Total Aromatics (panelists [2]; 1.0 ppb (5 ppm)): 6.3
Umami (Chemical Feeling Factors) (panelists [2]; 1.0 ppb (5 ppm)): 1.0
Vegetable Complex (panelists [2]; 1.0 ppb (5 ppm)): 1.0
Vegetable Oil (panelists [2]; 1.0 ppb (5 ppm)): 0.5
Black Pepper (panelists [2]; 10.0 ppb (50 ppm)): 0.8
Cooked Corn (panelists [2]; 10.0 ppb (50 ppm)): 0.8
Cooked Green Vegetable (panelists [2]; 10.0 ppb (50 ppm)): 0.8
Cooked White Rice (panelists [2]; 10.0 ppb (50 ppm)): 3.0
Dehydrated onion/garlic (panelists [2]; 10.0 ppb (50 ppm)): 0.8
HVP/Brothy (panelists [2]; 10.0 ppb (50 ppm)): 1.0
Heat (Chemical Feeling Factors) (panelists [2]; 10.0 ppb (50 ppm)): 0.5
Mineral/Flint (panelists [2]; 10.0 ppb (50 ppm)): 1.3
Mouthdrying (Texture) (panelists [2]; 10.0 ppb (50 ppm)): 1.0
Residual Mouthcoating (Texture) (panelists [2]; 10.0 ppb (50 ppm)): 1.0
Salt (BASIC TASTES) (panelists [2]; 10.0 ppb (50 ppm)): 13.5
Sweet (BASIC TASTES) (panelists [2]; 10.0 ppb (50 ppm)): 3.5
Total Aromatics (panelists [2]; 10.0 ppb (50 ppm)): 6.0
Umami (Chemical Feeling Factors) (panelists [2]; 10.0 ppb (50 ppm)): 3.0
Vegetable Complex (panelists [2]; 10.0 ppb (50 ppm)): 1.3
Vegetable Oil (panelists [2]; 10.0 ppb (50 ppm)): 0.5
Black Pepper (panelists [2]; 100 ppb (50 ppm)): 1.0
Cooked Corn (panelists [2]; 100 ppb (50 ppm)): 0.8
Cooked Green Vegetable (panelists [2]; 100 ppb (50 ppm)): 0.8
Cooked White Rice (panelists [2]; 100 ppb (50 ppm)): 3.0
Dehydrated onion/garlic (panelists [2]; 100 ppb (50 ppm)): 1.0
HVP/Brothy (panelists [2]; 100 ppb (50 ppm)): 1.0
Heat (Chemical Feeling Factors) (panelists [2]; 100 ppb (50 ppm)): 0.5
Mineral/Flint (panelists [2]; 100 ppb (50 ppm)): 1.0
Mouthdrying (Texture) (panelists [2]; 100 ppb (50 ppm)): 1.0
Residual Mouthcoating (Texture) (panelists [2]; 100 ppb (50 ppm)): 1.0
Salt (BASIC TASTES) (panelists [2]; 100 ppb (50 ppm)): 15.0
Sweet (BASIC TASTES) (panelists [2]; 100 ppb (50 ppm)): 3.5
Total Aromatics (panelists [2]; 100 ppb (50 ppm)): 6.5
Umami (Chemical Feeling Factors) (panelists [2]; 100 ppb (50 ppm)): 4.0
Vegetable Complex (panelists [2]; 100 ppb (50 ppm)): 1.5
Vegetable Oil (panelists [2]; 100 ppb (50 ppm)): 0.8
